Several values for one entry are separate records, joined by “and”; a condition that tells them apart may be missing. Equal values may be shown once. Toxic doses and inconclusive results are not listed. Rule for the calls: active = survival T/C of 150% or more; inactive = T/C below 125% in these data.
Test system: CD2F1 mice, L1210 leukemia ip, survival T/C
Assay: NCI In Vivo Anticancer Drug Screen. Data for tumor model L1210 Leukemia (intraperitoneal) in CD2F1 (CDF1) mice
Conditions: endpoint: mean survival time, higher = longer survival
In short: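 Read-out first: treated-group measurement over vehicle-control measurement, expressed as a ratio. Animals bore a transplanted tumor line and were dosed with compound or vehicle.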

[1] = dose: 100.0 mg/kg/injection, schedule: Q01DX009 (ip), vehicle: saline
[2] = dose: 200.0 mg/kg/injection, schedule: Q01DX009 (ip), vehicle: saline
[3] = dose: 100.0 mg/kg/injection, schedule: Q04DX003 (ip), vehicle: saline with Tween-80
[4] = dose: 75.0 mg/kg/injection, schedule: Q01DX001 (ip), vehicle: saline
[5] = dose: 100.0 mg/kg/injection, schedule: Q01DX009 (ip), vehicle: other
[6] = dose: 200.0 mg/kg/injection, schedule: Q01DX009 (ip), vehicle: other
[7] = dose: 100.0 mg/kg/injection, schedule: Q01DX009 (ip), vehicle: saline with Tween-80
[8] = dose: 200.0 mg/kg/injection, schedule: Q01DX009 (ip), vehicle: saline with Tween-80
[9] = dose: 200.0 mg/kg/injection, schedule: Q04DX003 (ip), vehicle: saline with Tween-80
[10] = dose: 400.0 mg/kg/injection, schedule: Q04DX003 (ip), vehicle: saline with Tween-80
[11] = dose: 100.0 mg/kg/injection, schedule: Q01DX001 (ip), vehicle: saline

Measured: T/C

CCCC[P+](c1ccccc1)(c1ccccc1)c1ccccc1
inactive: dose: 5.0 mg/kg/injection, schedule: Q01DX009 (ip), vehicle: saline sonified 103 % of control | dose: 5.0 mg/kg/injection, schedule: Q04DX003 (ip), vehicle: saline with Tween-80 97 % of control | dose: 10.0 mg/kg/injection, schedule: Q01DX009 (ip), vehicle: saline sonified 110 % of control | dose: 10.0 mg/kg/injection, schedule: Q04DX003 (ip), vehicle: saline with Tween-80 95 % of control | dose: 20.0 mg/kg/injection, schedule: Q01DX009 (ip), vehicle: saline sonified 120 % of control | dose: 20.0 mg/kg/injection, schedule: Q04DX003 (ip), vehicle: saline with Tween-80 98 % of control

c1ccc2nc(CCc3ccc4ccccc4n3)ccc2c1
inactive: dose: 50.0 mg/kg/injection, schedule: Q01DX009 (ip), vehicle: saline 96 % of control | [1] 100 % of control | [2] 102 % of control

CCCCCCCCCCCCC(=O)O.[Pb]
inactive: dose: 75.0 mg/kg/injection, schedule: Q01DX001 (ip), vehicle: other 107 % of control | dose: 150.0 mg/kg/injection, schedule: Q01DX001 (ip), vehicle: other 104 % of control | dose: 300.0 mg/kg/injection, schedule: Q01DX001 (ip), vehicle: other 97 % of control

Cc1ccc(S(=O)(=O)OCCOc2ccc(C(C)(C)CC(C)(C)C)cc2)cc1
inactive: dose: 100.0 mg/kg/injection, schedule: Q01DX001 (ip), vehicle: Klucel (hydroxypropylcellulose) (HPC) 93 % of control | dose: 200.0 mg/kg/injection, schedule: Q01DX001 (ip), vehicle: Klucel (hydroxypropylcellulose) (HPC) 98 % of control | dose: 400.0 mg/kg/injection, schedule: Q01DX001 (ip), vehicle: Klucel (hydroxypropylcellulose) (HPC) 94 % of control

CC(=N\N)/C(C)=N/N
inactive: [3] 105 % of control

CCN(CC)CCN(C)C(O)(C(=O)c1ccccc1)C1CCCCC1 (configuration not stated)
inactive: [4] 105 % of control | dose: 150.0 mg/kg/injection, schedule: Q01DX001 (ip), vehicle: saline 102 % of control | dose: 300.0 mg/kg/injection, schedule: Q01DX001 (ip), vehicle: saline 100 % of control

Cc1c([C@H](C)[C@@H]2NC[C@@H](C)C[C@H]2O)ccc2c1C[C@H]1[C@H]2CC=C2C[C@@H](O)CC[C@@]21C
inactive: dose: 2.5 mg/kg/injection, schedule: Q01DX009 (ip), vehicle: Klucel (hydroxypropylcellulose) (HPC) 96 % of control | dose: 5.0 mg/kg/injection, schedule: Q01DX009 (ip), vehicle: Klucel (hydroxypropylcellulose) (HPC) 102 % of control

CC(C#N)(Nc1ccccc1)c1ccco1 (configuration not stated)
inactive: dose: 6.25 mg/kg/injection, schedule: Q01DX009 (ip), vehicle: other 102 % of control | dose: 6.25 mg/kg/injection, schedule: Q04DX003 (ip), vehicle: other 94 % of control | dose: 12.5 mg/kg/injection, schedule: Q01DX009 (ip), vehicle: other 100 % of control | dose: 12.5 mg/kg/injection, schedule: Q04DX003 (ip), vehicle: other 95 % of control | dose: 25.0 mg/kg/injection, schedule: Q01DX009 (ip), vehicle: other 94 % of control | dose: 25.0 mg/kg/injection, schedule: Q04DX003 (ip), vehicle: other 106 % of control | [5] 90 % of control | dose: 100.0 mg/kg/injection, schedule: Q04DX003 (ip), vehicle: saline 103 % of control | [6] 94 % of control | dose: 200.0 mg/kg/injection, schedule: Q04DX003 (ip), vehicle: saline 101 % of control | dose: 400.0 mg/kg/injection, schedule: Q04DX003 (ip), vehicle: saline 94 % of control

COC(=O)c1ccc[n+](CC(=O)c2ccccc2)c1
inactive: dose: 50.0 mg/kg/injection, schedule: Q01DX009 (ip), vehicle: saline with Tween-80 101 % of control | [7] 96 % of control | [8] 98 % of control

COc1ccc(CCNC(=O)Cc2cc(OC)c(OC)cc2Br)cc1OC
inactive: [3] 94 % of control | [9] 100 % of control | [10] 96 % of control

Nc1nc(N)c2c(n1)NCN(CCc1c(Cl)cccc1Cl)C2
inactive: dose: 0.75 mg/kg/injection, schedule: Q01DX009 (ip), vehicle: distilled water + Tween-80 98 % of control | dose: 1.5 mg/kg/injection, schedule: Q01DX009 (ip), vehicle: distilled water + Tween-80 102 % of control | dose: 3.0 mg/kg/injection, schedule: Q01DX009 (ip), vehicle: distilled water + Tween-80 98 % of control | dose: 6.0 mg/kg/injection, schedule: Q01DX009 (ip), vehicle: distilled water + Tween-80 98 % of control | dose: 12.0 mg/kg/injection, schedule: Q01DX009 (ip), vehicle: distilled water + Tween-80 104 % of control | dose: 24.0 mg/kg/injection, schedule: Q01DX009 (ip), vehicle: distilled water + Tween-80 98 % of control | dose: 37.5 mg/kg/injection, schedule: Q01DX009 (ip), vehicle: distilled water + Tween-80 100 % of control | dose: 75.0 mg/kg/injection, schedule: Q01DX009 (ip), vehicle: distilled water + Tween-80 97 % of control

CC1(C)CC2(OC2c2ccccc2)C(C)(O)c2ccccc21 (configuration not stated)
inactive: [5] 105 % of control | [6] 113 % of control | dose: 400.0 mg/kg/injection, schedule: Q01DX009 (ip), vehicle: other 104 % of control

NC(N)=NC(N)=Nc1ccc(C(=O)O)c(O)c1
inactive: [1] 106 % of control | [2] 95 % of control | dose: 400.0 mg/kg/injection, schedule: Q01DX009 (ip), vehicle: saline 95 % of control

CCCOC(=O)c1cncn1C(C)c1ccccc1 (configuration not stated)
inactive: [11] 102 % of control

CC12CCC(=O)C=C1CCC1C2C(=O)CC2(C)C1CCC2(O)C(=O)Cn1c(=O)cc[nH]c1=O (configuration not stated)
inactive: dose: 12.5 mg/kg/injection, schedule: Q04DX003 (ip), vehicle: Klucel (hydroxypropylcellulose) (HPC) 96 % of control | dose: 25.0 mg/kg/injection, schedule: Q04DX003 (ip), vehicle: Klucel (hydroxypropylcellulose) (HPC) 96 % of control | dose: 50.0 mg/kg/injection, schedule: Q04DX003 (ip), vehicle: Klucel (hydroxypropylcellulose) (HPC) 103 % of control | dose: 100.0 mg/kg/injection, schedule: Q04DX003 (ip), vehicle: Klucel (hydroxypropylcellulose) (HPC) 97 % of control | dose: 200.0 mg/kg/injection, schedule: Q04DX003 (ip), vehicle: Klucel (hydroxypropylcellulose) (HPC) 97 % of control

CC(=O)/C(C#N)=C(\C)N
inactive: dose: 50.0 mg/kg/injection, schedule: Q04DX002 (ip), vehicle: saline 103 % of control | dose: 100.0 mg/kg/injection, schedule: Q04DX002 (ip), vehicle: saline 103 % of control | dose: 200.0 mg/kg/injection, schedule: Q04DX002 (ip), vehicle: saline 103 % of control

CCC(=O)Nc1ccccc1Cl
inactive: [3] 103 % of control | [9] 100 % of control | [10] 100 % of control

O=C(O)/C(=C\c1cccc([N+](=O)[O-])c1)c1ccccc1
inactive: dose: 100.0 mg/kg/injection, schedule: Q01DX001 (ip), vehicle: saline with Tween-80 97 % of control | [7] 91 % of control and 107 % of control | dose: 100.0 mg/kg/injection, schedule: Q04DX002 (ip), vehicle: saline with Tween-80 100 % of control and 105 % of control | [3] 100 % of control | dose: 200.0 mg/kg/injection, schedule: Q01DX001 (ip), vehicle: saline with Tween-80 96 % of control | [8] 93 % of control | dose: 200.0 mg/kg/injection, schedule: Q04DX002 (ip), vehicle: saline with Tween-80 101 % of control and 103 % of control | [9] 100 % of control | dose: 400.0 mg/kg/injection, schedule: Q04DX002 (ip), vehicle: saline with Tween-80 90 % of control and 92 % of control | [10] 100 % of control

O=c1[nH]nc(OCc2ccccc2)c2ncn(Cc3ccccc3)c12
inactive: dose: 12.5 mg/kg/injection, schedule: Q01DX005 (ip), vehicle: other 91 % of control | dose: 100.0 mg/kg/injection, schedule: Q01DX005 (ip), vehicle: other 88 % of control | dose: 200.0 mg/kg/injection, schedule: Q01DX005 (ip), vehicle: other 86 % of control

CS(=O)(=O)N1CCCCC1
inactive: [4] 100 % of control

c1ccc(CSC(SCc2ccccc2)c2ccccc2)cc1
inactive: dose: 100.0 mg/kg/injection, schedule: Q01DX009 (ip), vehicle: Klucel (hydroxypropylcellulose) (HPC) 86 % of control | [3] 96 % of control | dose: 200.0 mg/kg/injection, schedule: Q01DX009 (ip), vehicle: Klucel (hydroxypropylcellulose) (HPC) 92 % of control | [9] 100 % of control | dose: 400.0 mg/kg/injection, schedule: Q01DX009 (ip), vehicle: Klucel (hydroxypropylcellulose) (HPC) 92 % of control | [10] 97 % of control

Oc1cc(O)c(Cl)cc1Cl
inactive: dose: 25.0 mg/kg/injection, schedule: Q01DX001 (ip), vehicle: saline 103 % of control | dose: 50.0 mg/kg/injection, schedule: Q01DX001 (ip), vehicle: saline 95 % of control | [11] 95 % of control and 104 % of control

— PubChem BioAssay AID256 (DTP/NCI, 2004)
